Experimental data from patent US20220395555A1, “Derivatives of antibiotics” (priority 2020, published 2022).

Test system: resistant strains of fungi (Candida spp., Microsporium, Trich. mentagrophytes, Aspergillus niger)
Experiment: Antifungal activity on the resistant strains
Assay type: cell-based
Conditions: resistant fungal strains

Structure (SMILES)	antifungal activity, in words
C[C@@H]1[C@H](O)[C@@H](C)/C=C/C=C/C=C/C=C/C=C/C=C/C=C/[C@H](O[C@@H]2O[C@H](C)[C@@H](O)[C@H](N)[C@@H]2O)C[C@@H]2O[C@](O)(C[C@@H](O)C[C@@H](O)[C@H](O)CC[C@@H](O)C[C@@H](O)CC(=O)O[C@H]1C)C[C@H](O)[C@H]2C(=O)O [amphotericin]	did not exert antifungal activity
C[C@@H]1[C@H](O)[C@@H](C)/C=C/C=C/CC/C=C/C=C/C=C/C=C/C(O[C@H]2O[C@H](C)[C@@H](O)[C@H](N)[C@@H]2O)CC2O[C@](O)(CC(O)C(O)CCC(O)CC(O)CC(O)CC(=O)O[C@H]1C)CC(O)C2C(=O)O (some centres unmarked) [nystatin]	did not exert antifungal activity
